Data as given in US9682928B2 (NeuroPro Therapeutics, Inc., priority 2009, dated 2017).
Values joined by “and” are separate entries in the source; they are usually repeats but may differ in a detail not shown here. Equal values may be shown once. “Also recorded” adds a separate entry of the source.

Legend:
[1] = tested on: GABAA-IPSCs, hippocampal slices (CA1 pyramidal cell layer); assay: In vitro hippocampal slice recordings of miniature and spontaneous IPSCs; assay type: cell-based; settings: two experiments
Procedure: Ion flux in neuronal cells was measured using standard techniques. Kandel and Schwartz Principles of Neural Science 2nd Edition (1985), see, e.g., pages 128-131. Recording was performed in vitro in hippocampal slices (CA1 pyramidal cell layer). For recording GABAA-IPSCs, glutamatergic and GABAB transmission was blocked by adding DNOX (50 μM), AP-5 (50 μM), and SCH50911 ([…]) into the medium. The intracellular solution comprised CsCl and OX314.

[2] = target: T1, δ-containing GABAA receptors (Homo sapiens, UniProt O14764); assay: Whole-cell patch clamp, transfected HEK-293T cells; assay type: cell-based, rat or human; settings: 10 μM NTP-2014
T1 construct: expressed in transfected cells; host or cells: HEK-293T, transient transfection
T1 sequence (O14764 25-452): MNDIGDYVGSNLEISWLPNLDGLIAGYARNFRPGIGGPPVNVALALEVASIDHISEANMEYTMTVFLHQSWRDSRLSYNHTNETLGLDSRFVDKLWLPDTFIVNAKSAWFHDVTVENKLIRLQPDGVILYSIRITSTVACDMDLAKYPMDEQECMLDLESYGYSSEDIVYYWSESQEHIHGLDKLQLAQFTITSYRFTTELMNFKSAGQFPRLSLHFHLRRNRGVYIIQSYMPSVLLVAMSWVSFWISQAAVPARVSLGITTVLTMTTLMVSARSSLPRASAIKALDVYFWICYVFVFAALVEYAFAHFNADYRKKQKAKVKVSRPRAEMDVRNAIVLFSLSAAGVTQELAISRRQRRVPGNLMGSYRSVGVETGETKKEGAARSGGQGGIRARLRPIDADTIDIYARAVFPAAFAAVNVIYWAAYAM
Procedure: The addition of GABA to […] activates the recombinant expressed GABAA receptors, creating an ion movement through the ion channel in the GABAA receptor. The electrical current generated by the movement of chloride ions into the cells can be quantified.
HEK-293T cells were transiently transfected with rat or human GABAA receptor subunits. Whole-cell patch clamp recording was performed at −50 mV unless otherwise indicated. Test compounds was diluted from a freshly made stock in DMSO, GABA was prepared from a frozen stock. For each experiment GABA or GABA+a test compound was applied for 5 seconds, and the electrical current generated by the movement of chloride ions into the cells was measured and recorded as a trace of current versus time.

in vivo = settings: rat
rats = assay: Contextual fear conditioning in rats; assay type: in vivo, rat; settings: I.V.; furosemide 100 mg/kg, bumetanide 50 mg/kg
Procedure: Contextual fear conditioning involves pairing an aversive event, in this case moderate foot shock, with a distinctive environment. The strength of the fear memory is assessed using freezing, a species-typical defensive reaction in rats, marked by complete immobility, except for breathing. […] However, if they are allowed to explore the distinctive environment sometime before the immediate shock, they show intense anxiety and fear when placed back into the same environment. By procedurally dividing contextual fear conditioning into two phases, the effects of treatments on memory for the context (specifically a hippocampus based process) from learning the association between context and shock or experiencing the aversiveness of the shock (which depend upon emotional response circuitry including amygdala) were separately studied. […] The experiment employed 24 rats. […] Each rat was again placed into the same environment for 8 min during which time freezing was measured, as an index of Pavlovian conditioned fear. […] Measurement of freezing was accomplished through an overhead video camera connected to the microcomputer and was automatically scored using a specialty piece of software, FreezeFrame (OER Inc., Reston, Va.) Total freezing time was analyzed in a one-way analysis of variance (ANOVA) test, with drug dose as the […] factor.

mouse = assay: Formalin test (acute/early and late phase) in mice; assay type: in vivo
Procedure: The formalin test was performed according to the method of Tjølsen, et al. (October 1992) “The formalin test: an evaluation of the method.” Pain 51(1): 5-17. An injection of 0.5% formalin is made into the plantar region of the right hind paw of a mouse. This elicits a distinct behavioral profile in response to the formalin injection characterized by the mouse licking the affected paw. The behavior is characteristically biphasic in nature. For example, immediately following the injection the mouse intensely licks the paw for approximately 5-10 minutes (“min.”) This initial behavior was considered phase 1 (acute) and is thought to be mediated primarily by chemical activation of local C-fibers. The acute phase is followed by a brief latent (usually <5 min) period where there is little or no behavioral activity. A more prolonged (about 20 to 30 min) period of licking then ensues which constitutes phase 2 of the response (late phase). See e.g., Tjølsen, et al. (Feb. 7, 1991) “Antinociceptive effect of paracetamol in rats is partly dependent on spinal serotonergic systems. Eur J Pharmacol. 193(2): 193-201 and Tjølsen, et al. (June 1991) Lesions of bulbo-spinal serotonergic or noradrenergic pathways reduce nociception as measured by the formalin test. Acta Physiol Scand. 142(2): 229-36, the disclosures of each of which are hereby incorporated by reference in its entirety.
It is in these tubes that mice are later observed for the licking activity for the duration of the experiment. Following the conditioning, the test substance was administered i.p. in a dose equivalent to the MES ED50 and the mouse returned to its home tube. At the TPE of the drug, the formalin is injected subdermally into the plantar surface of the right hind foot. It is given in a volume of 20 μl with a 27 gauge stainless steel needle attached to a Hamilton syringe. The bevel of the needle was placed facing down toward the skin surface. […] The cumulative length of licking for each 2-min time period was measured. […] Animals are euthanized following the conclusion of the experiment.
Area under the curve (AUC) and subsequent percent of control for drug-treated animal groups is determined using the GraphPad Prism Version 3.03. Total AUC was calculated for both the test and control groups for both the acute and inflammatory phases. The AUC for individual animals for each phase was also calculated and converted to percentage of total AUC of control. The average and S.E.M. for both the drug treated and control percentages were calculated and tested for significant difference.

[3] = Brain levels in rat following IP administration; assay type: in vivo; settings: PBx pretreated; for Concentration of NTP-2024 in rat brain: NTP-2024 100 mg/kg IP; for Concentration of NTP-2000 (bumetanide) in rat brain: after NTP-2024 100 mg/kg IP
Male CD-1 mice = assay: Chung (SNL) neuropathic pain study in mice; assay type: in vivo, mouse; settings: high dose group (180 mg/kg NTP-2014; 100 mg/kg NTP-2026; gabapentin 100 mg/kg, i.p.)

In the case of `CCCCN(CCCC)c1cc(C(=O)O)cc(S(N)(=O)=O)c1Oc1ccccc1` [NTP-2014, 3-Aminosulfonyl-5-N,N-dibutylamino-4-phenoxybenzoic acid], the “Mean interval between inhibitory events, spontaneous IPSCs, with NTP-2014” value ([1]; from 257 ms (FIG. 34A) and from 535 ms (FIG. 34B)) is reported as 205 ms and 401 ms, the “Mean interval between inhibitory events, miniature IPSCs, with NTP-2014” value ([1]; from 315 ms (FIG. 35A) and from 361 ms (FIG. 35B)) is reported as 162 ms and 160 ms and the “Effect on δ-containing receptors” value [2] is reported as “unaffected”. The NOAEL at 14 day (in vivo) was 500 mg/kg.

For `CCCCNc1cc(C(=O)O)cc(S(N)(=O)=O)c1Oc1ccccc1` [Bumetanide, reference compound], the “Freezing vs vehicle alone” value (rats) was “significantly less freezing”.

For `CCCCNc1cc(C(=O)NN2CCOCC2)cc(S(N)(=O)=O)c1Oc1ccccc1` [NTP-2024, N-Morpholinyl 3-Aminosulfonyl-5-N-butylamino-4-phenoxybenzamide], the “Decrease in pain, Formalin Paw Test (Mice) - Late Phase” value (mouse; 346 μmol/kg, 150 mg/kg, p < 0.01) was 150 mg/kg; >80%, the “Decrease in pain, Formalin Paw Test (Mice) - Early Phase” value (mouse; 346 μmol/kg, 150 mg/kg, p < 0.05) was 150 mg/kg; ~40%; and the “% of Control, Acute” value (mouse; 150 mg/kg i.p., mice) was 58.55%. The “% of Control, Late Phase” value (mouse; 150 mg/kg i.p., mice) was 12.54%, the “Treated (AUC of licking time), Acute” value (mouse; 150 mg/kg i.p., mice) was 80.03 and the “Treated (AUC of licking time), Late Phase” value (mouse; 150 mg/kg i.p., mice) was 76.39. For the same compound, the “Concentration of NTP-2024 in rat brain” value ([3]; 15 m) was 283.783 ng/mL and 277.985 ng/mL and 226.803 ng/mL, the “Concentration of NTP-2024 in rat brain” value ([3]; 30 m) was 223.370 ng/mL and 340.460 ng/mL and 348.182 ng/mL and the “Concentration of NTP-2024 in rat brain” value ([3]; 2 h) was 124.854 ng/mL and 112.217 ng/mL and 154.415 ng/mL. For the same compound, the “Concentration of NTP-2024 in rat brain” value ([3]; 4 h) was 26.6338 ng/mL and 23.4893 ng/mL and 37.1694 ng/mL, the “Concentration of NTP-2024 in rat brain” value ([3]; 6 h) was 25.4146 ng/mL and 18.4619 ng/mL and 25.7880 ng/mL and the “Concentration of NTP-2000 (bumetanide) in rat brain” value ([3]; 15 m) was “BLQ (Below Limit of Quantitation (<1 ng/mL))”. For the same compound, the “Concentration of NTP-2000 (bumetanide) in rat brain” value ([3]; 2 h) was “BLQ (Below Limit of Quantitation (<1 ng/mL))”, the “Concentration of NTP-2000 (bumetanide) in rat brain” value ([3]; 4 h) was “BLQ (Below Limit of Quantitation (<1 ng/mL))” and the “Concentration of NTP-2000 (bumetanide) in rat brain” value ([3]; 6 h) was “BLQ (Below Limit of Quantitation (<1 ng/mL))”.

With `CCCCNc1cc(C(=O)N(C)CCCN(C)C)cc(S(N)(=O)=O)c1Oc1ccccc1` [NTP-2026, N-(3-(Dimethylamino)propyl)-N-methyl 3-Aminosulfonyl-5-N-butylamino-4-phenoxybenzamide] the Sedation (Male CD-1 mice) was “Some minor sedation; also recorded: tactile hypersensitivity. Some minor”.
